Data reported in US20200270309A1, “MALEIMIDE GROUP-MODIFIED ANGIOGENESIS INHIBITOR HM-1 AND USE THEREOF” (NANJING ANJI BIOLOGICAL TECHNOLOGY CO., LTD, priority 2017, published 2020).
Marks after values point to notes of the source that are not given here. Peptide text beside a SMILES is read from it. * marks the point of attachment. X68 = O=C1C=CC(=O)N1c1ccccc1CCCCCCCCCCCC(=O)*; X52 = O=C1C=CC(=O)N1c1ccccc1CCCCCCCC(=O)*; X46 = O=C1C=CC(=O)N1c1cccc(CCCCC(=O)*)c1

Key:
[1] = tested on: human retinal capillary endothelial cells (HRCECs); assay: MTT proliferation inhibition on HRCECs; assay type: cell-based; conditions: 48 h; for A570 nm-A630 nm: mean±SD
Method in brief: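 HRCECs seeded at 3.0×10^4 cells/mL, adhered overnight, then exposed to polypeptide for 48 h at 37 °C, 5% CO2. MTT added 4 h, formazan dissolved in DMSO, absorbance 570/630 nm; PIR (%) = 1 − treated/negative control, mean±SD of three independent runs.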

[2] = tested on: choroidal neovascularization; assay: Choroidal neovascularization in rats (laser photocoagulation, FFA); assay type: in vivo; conditions: BN rats
Method in brief: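 Male BN rats aged 6-8 weeks were given 8 krypton-laser spots around the optic disc (647.1 nm, 350 mW, 50 μm, 0.05 s). Once the model was confirmed, groups of 5 got daily intravitreal compound at 0.05 μM or saline for 1 week. FFA followed at 3, 7, 14 and 28 days after dosing.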

[3] = tested on: corneal neovascularization; assay: Corneal neovascularization induced by alkali burn in BALB/c mice; assay type: in vivo; set-up: Inhibition rate (corneal neovascularization): concentration or dose not given beside the values; conditions: day 14 after alkali burn, vitreous injection once a day for 1 week
[4] = tested on: collagen-induced arthritis; assay: Mouse collagen-induced arthritis (CIA) animal model; assay type: in vivo; conditions: DBA/1 mice CIA model, dose 4.0 mg/kg, subcutaneous from day 30, n=10; for Clinical score: highest score 16
[5] = Half-lives and pharmacokinetic parameters of polypeptides vs HM-1; conditions: in vivo; for half-life: T1/2β (half-life)
HUVECs = assay: Transwell migration inhibition on HUVECs; assay type: cell-based, human; conditions: HUVEC migration vs blank control
[6] = tested on: xylene-induced ear swelling; assay: Xylene-induced mouse ear swelling; assay type: in vivo; conditions: Kunming mice, injected once a day for 5 days; for Swelling degree (mg) / Swelling degree: right minus left ear piece weight 2 h after xylene; for Inhibition rate (%): xylene-induced ear swelling
Method in brief: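 Kunming mice dosed by injection once daily for 5 days; 1 h after last dose, 0.05 mL xylene applied to right ear, left ear untreated. Mice killed 2 h later; punched ear pieces weighed. Swelling degree = right minus left ear weight; swelling rate = swelling degree/left ear weight ×100%.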

[7] = tested on: carrageenan-induced toe swelling; assay: Carrageenan-induced toe swelling in rats; assay type: in vivo; conditions: SD rats; for Swelling degree 1 h: 1 h after carrageenan; for Swelling degree 3 h: 3 h after carrageenan; for Swelling degree 5 h: 5 h after carrageenan; for Swelling degree 7 h: 7 h after carrageenan
Method in brief: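 Rats dosed by injection once daily for 3 d, controls given equal-volume saline. Right hind paw volume measured by water displacement to a marked joint line; swelling degree (mL) is paw volume after carrageenan inflammation minus volume before.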

[8] = day 3 after administration, total light spot number was 297, 0.05 μM in the vitreous chamber once a day for 1 week
[9] = day 7 after administration, total light spot number was 186, 0.05 μM in the vitreous chamber once a day for 1 week
[10] = day 14 after administration, total light spot number was 137, 0.05 μM in the vitreous chamber once a day for 1 week
[11] = day 28 after administration, total light spot number was 69, 0.05 μM in the vitreous chamber once a day for 1 week

Row | AUC(0-inf) [5] [ng·h/mL] | SMILES | Inhibition rate (%) ([1]; dose 0.05 μM) [%*] | A570 nm-A630 nm ([1]; dose 0.05 μM) | Inhibition rate (%) ([1]; dose 0.1 μM) [%**] | A570 nm-A630 nm ([1]; dose 0.1 μM) | Inhibition rate (%) ([1]; dose 0.2 μM) [%*] | A570 nm-A630 nm ([1]; dose 0.2 μM) | CNV Incidence (%) [2, 8] [%] | Leakage Light spot number [2, 8] | CNV Incidence (%) [2, 9] [%] | Leakage Light spot number [2, 9] | CNV Incidence (%) [2, 10] [%] | Leakage Light spot number [2, 10] | CNV Incidence (%) [2, 11] [%] | Leakage Light spot number [2, 11] | Inhibition rate (corneal neovascularization) [3] [%] | MVD (corneal microvessel density) [3] | Joint swelling degree (mm) [4] [mm] | Left and right paw swelling degree (mm) [4] [mm] | Clinical score [4] | other results
1 | 32200 ± 6970 | C[C@H](NC(=O)CNC(=O)[C@H](CCCNC(=N)N)NC(=O)CCCCCCCc1ccccc1N1C(=O)C=CC1=O)C(=O)N[C@@H](CC(=O)O)C(=O)N[C@@H](CCCNC(=N)N)C(=O)N[C@@H](C)C(=O)NCC(=O)NCC(=O)NCC(=O)NCC(=O)N[C@@H](CCCNC(=N)N)C(=O)NCC(=O)N[C@@H](CC(=O)O)C(=O)O [X19] (X52-RGADRAGGGGRGD-OH) | 51.03 | 0.6472 ± 0.01829 | 63.29 | 0.4852 ± 0.07133 | 64.71 | 0.4664 ± 0.01886 | 52.19 | 155 | 45.70 | 85 | 41.61 | 57 | 44.93 | 31 | 41.43 | 39.38 ± 4.833 | 0.84 ± 0.18 | 0.82 ± 0.14 | 8.72 ± 1.41 | MRT inf [5]: 57.6 ± 10.8 h; clearance [5]: 0.518 mL/min/kg; half-life [5]: 39.95 ± 0.28 h; Inhibition rate (%) (HUVECs; dose 0.05 μM): 40.99%; Inhibition rate (%) (HUVECs; dose 0.1 μM): 46.77%; Inhibition rate (%) (HUVECs; dose 0.2 μM): 54.44%; Swelling degree (mg) ([6]; dose 2 mg/kg): 4.98 ± 0.72* mg; Inhibition rate (%) ([6]; dose 2 mg/kg): 20.06%; Swelling degree (mg) ([6]; dose 4 mg/kg): 3.97 ± 0.61** mg; Inhibition rate (%) ([6]; dose 4 mg/kg): 36.28%; Swelling degree (mg) ([6]; dose 8 mg/kg): 3.8 ± 0.03** mg; Inhibition rate (%) ([6]; dose 8 mg/kg): 39.00%; Swelling degree 1 h ([7]; 2.0 mg/kg once a day for 3 d): 0.21 ± 0.13 mg; Swelling degree 3 h ([7]; 2.0 mg/kg once a day for 3 d): 0.33 ± 0.15 mg; Swelling degree 5 h ([7]; 2.0 mg/kg once a day for 3 d): 0.36 ± 0.17 mg; Swelling degree 7 h ([7]; 2.0 mg/kg once a day for 3 d): 0.32 ± 0.12 mg; Swelling degree 1 h ([7]; 4.0 mg/kg once a day for 3 d): 0.26 ± 0.11 mg; Swelling degree 3 h ([7]; 4.0 mg/kg once a day for 3 d): 0.38 ± 0.17 mg; Swelling degree 5 h ([7]; 4.0 mg/kg once a day for 3 d): 0.42 ± 0.15 mg; Swelling degree 7 h ([7]; 4.0 mg/kg once a day for 3 d): 0.32 ± 0.18 mg
2 | 25600 ± 8510 | C[C@H](NC(=O)CNC(=O)[C@H](CCCNC(=N)N)NC(=O)CCCCCCCCCCCc1ccccc1N1C(=O)C=CC1=O)C(=O)N[C@@H](CC(=O)O)C(=O)N[C@@H](CCCNC(=N)N)C(=O)N[C@@H](C)C(=O)NCC(=O)NCC(=O)NCC(=O)NCC(=O)N[C@@H](CCCNC(=N)N)C(=O)NCC(=O)N[C@@H](CC(=O)O)C(=O)O [X23] (X68-RGADRAGGGGRGD-OH) | 45.59 | 0.7191 ± 0.07483 | 46.74 | 0.7043 ± 0.07872 | 48.91 | 0.6753 ± 0.00095 | 52.86 | 157 | 45.70 | 85 | 44.53 | 61 | 37.68 | 26 | 46.95 | 35.67 ± 6.861 | 0.77 ± 0.17 | 0.77 ± 0.15 | 9.15 ± 1.47 | MRT inf [5]: 45.8 ± 10.6 h; clearance [5]: 0.652 mL/min/kg; half-life [5]: 31.72 ± 0.25 h; Inhibition rate (%) (HUVECs; dose 0.05 μM): 48.22%; Inhibition rate (%) (HUVECs; dose 0.1 μM): 51.50%; Inhibition rate (%) (HUVECs; dose 0.2 μM): 52.06%; Swelling degree ([6]; dose 2 mg/kg): 5.64 ± 0.84 mg; Inhibition rate (%) ([6]; dose 2 mg/kg): 9.47%; Swelling degree (mg) ([6]; dose 4 mg/kg): 3.63 ± 0.51** mg; Inhibition rate (%) ([6]; dose 4 mg/kg): 41.73%; Swelling degree (mg) ([6]; dose 8 mg/kg): 3.47 ± 0.06** mg; Inhibition rate (%) ([6]; dose 8 mg/kg): 44.30%; Swelling degree 1 h ([7]; 2.0 mg/kg once a day for 3 d): 0.28 ± 0.17 mg; Swelling degree 3 h ([7]; 2.0 mg/kg once a day for 3 d): 0.34 ± 0.19 mg; Swelling degree 5 h ([7]; 2.0 mg/kg once a day for 3 d): 0.37 ± 0.11 mg; Swelling degree 7 h ([7]; 2.0 mg/kg once a day for 3 d): 0.35 ± 0.18 mg; Swelling degree 1 h ([7]; 4.0 mg/kg once a day for 3 d): 0.26 ± 0.16 mg; Swelling degree 3 h ([7]; 4.0 mg/kg once a day for 3 d): 0.34 ± 0.19 mg; Swelling degree 5 h ([7]; 4.0 mg/kg once a day for 3 d): 0.38 ± 0.13 mg; Swelling degree 7 h ([7]; 4.0 mg/kg once a day for 3 d): 0.34 ± 0.17 mg
3 | 25100 ± 7920 | C[C@H](NC(=O)CNC(=O)[C@H](CCCNC(=N)N)NC(=O)CCCCc1cccc(N2C(=O)C=CC2=O)c1)C(=O)N[C@@H](CC(=O)O)C(=O)N[C@@H](CCCNC(=N)N)C(=O)N[C@@H](C)C(=O)NCC(=O)NCC(=O)NCC(=O)NCC(=O)N[C@@H](CCCNC(=N)N)C(=O)NCC(=O)N[C@@H](CC(=O)O)C(=O)O [X28] (X46-RGADRAGGGGRGD-OH) | 48.58 | 0.6796 ± 0.03488 | 52.72 | 0.6249 ± 0.09489 | 69.71 | 0.4004 ± 0.02963 | 50.17 | 149 | 46.77 | 87 | 45.26 | 62 | 40.58 | 28 | 46.59 | 35.91 ± 4.891 | 0.72 ± 0.18 | 0.73 ± 0.18 | 8.83 ± 1.26 | MRT inf [5]: 45 ± 13 h; clearance [5]: 0.663 mL/min/kg; half-life [5]: 31.19 ± 0.26 h; Inhibition rate (%) (HUVECs; dose 0.05 μM): 43.01%; Inhibition rate (%) (HUVECs; dose 0.1 μM): 52.75%; Inhibition rate (%) (HUVECs; dose 0.2 μM): 53.13%; Swelling degree (mg) ([6]; dose 2 mg/kg): 5.25 ± 0.56** mg; Inhibition rate (%) ([6]; dose 2 mg/kg): 33.87%; Swelling degree ([6]; dose 4 mg/kg): 4.86 ± 0.63 mg; Inhibition rate (%) ([6]; dose 4 mg/kg): 15.73%; Swelling degree (mg) ([6]; dose 8 mg/kg): 4.12 ± 0.93* mg; Inhibition rate (%) ([6]; dose 8 mg/kg): 21.99%; Swelling degree 1 h ([7]; 2.0 mg/kg once a day for 3 d): 0.29 ± 0.13 mg; Swelling degree 3 h ([7]; 2.0 mg/kg once a day for 3 d): 0.35 ± 0.15 mg; Swelling degree 5 h ([7]; 2.0 mg/kg once a day for 3 d): 0.45 ± 0.17 mg; Swelling degree 7 h ([7]; 2.0 mg/kg once a day for 3 d): 0.36 ± 0.14 mg; Swelling degree 1 h ([7]; 4.0 mg/kg once a day for 3 d): 0.28 ± 0.15 mg; Swelling degree 3 h ([7]; 4.0 mg/kg once a day for 3 d): 0.34 ± 0.11 mg; Swelling degree 5 h ([7]; 4.0 mg/kg once a day for 3 d): 0.37 ± 0.17 mg; Swelling degree 7 h ([7]; 4.0 mg/kg once a day for 3 d): 0.35 ± 0.18 mg
